Oligonucleotides are written 5' to 3', each unit as a sugar letter and its base; * is a phosphorothioate linkage, no mark a phosphodiester; rarer units and linkages stand in square brackets, end groups in braces. Plain capitals give the bases only. e = 2'-O-(2-methoxyethyl) (MOE); [5mC] = 5-methylcytosine; d = 2'-deoxy (DNA)
system: murine TTC39B mRNA; assay: Antisense inhibition of murine TTC39B in mouse primary hepatocytes, single dose; type: cell-based; conditions: 100 nM, cytofectin, ~24 h, vs untreated control; gapmers targeted to SEQ ID NO: 6
Method: Antisense oligonucleotides targeted to a TTC39B nucleic acid were tested for their effects on TTC39B mRNA in vitro. Cultured mouse primary hepatocytes at a density of 10,000 cells per well were transfected using cytofectin reagent with 100 nM antisense oligonucleotide. After a treatment period of approximately 24 hours, RNA was isolated from the cells and TTC39B mRNA levels were measured by quantitative real-time PCR. TTC39B mRNA levels were adjusted according to total RNA content, as measured by RIBOGREEN®. Results are presented as percent inhibition of TTC39B, relative to untreated control cells.
The chimeric antisense oligonucleotides in Tables 1 and 2 were designed as 5-10-5 MOE gapmers. The gapmers are 20 nucleotides in length, wherein the central gap segment is comprised of 10 2′-deoxynucleotides and is flanked on both sides (in the 5′ and 3′ directions) by wings comprising 5 nucleotides each. Each nucleotide in the 5′ wing segment and each nucleotide in the 3′ wing segment has a 2′-MOE modification. The internucleoside linkages throughout each gapmer are phosphorothioate (P═S) linkages. All cytosine residues throughout each gapmer are 5-methylcytosines. “Target start site” indicates the 5′-most nucleotide to which the gapmer is targeted. “Target stop site” indicates the 3′-most nucleotide to which the gapmer is targeted. Each gapmer listed in Table 1 is targeted to SEQ ID NO: 6 (GENBANK Accession No. NM_027238.2) and each gapmer listed in Table 2 is targeted to SEQ ID NO: 10 (the complement of GENBANK Accession No. NT—039260.7 truncated at nucleotides 22491001 to 22601000), SEQ ID NO: 11 (GENBANK Accession No. BY244623.1), SEQ ID NO: 12 (GENBANK Accession No. BY260936), SEQ ID NO: 13 (GENBANK Accession No. BM935568.1) or SEQ ID NO: 14 (GENBANK Accession No. BY728780.1).

Sequence | % inhibition of murine TTC39B mRNA
AATGCCACCACCTTCAACCA (antisense eA*eA*eT*eG*e[5mC]*d[5mC]*dA*d[5mC]*d[5mC]*dA*d[5mC]*d[5mC]*dT*dT*d[5mC]*eA*eA*e[5mC]*e[5mC]*eA) [ISIS 447138] | 65%
GCGCCTTCCCGGAGCTGCAG (antisense eG*e[5mC]*eG*e[5mC]*e[5mC]*dT*dT*d[5mC]*d[5mC]*d[5mC]*dG*dG*dA*dG*d[5mC]*eT*eG*e[5mC]*eA*eG) [ISIS 447116] | 56%
GGCAGAGTATAAGAATTTCT (antisense eG*eG*e[5mC]*eA*eG*dA*dG*dT*dA*dT*dA*dA*dG*dA*dA*eT*eT*eT*e[5mC]*eT) [ISIS 447133] | 56%
GGCTCTGGGTTCAGCCCAGC (antisense eG*eG*e[5mC]*eT*e[5mC]*dT*dG*dG*dG*dT*dT*d[5mC]*dA*dG*d[5mC]*e[5mC]*e[5mC]*eA*eG*e[5mC]) [ISIS 447098] | 44%
GTCCGATGGAGATCTAGAGA (antisense eG*eT*e[5mC]*e[5mC]*eG*dA*dT*dG*dG*dA*dG*dA*dT*d[5mC]*dT*eA*eG*eA*eG*eA) [ISIS 447102] | 84%
GTTCCGGATCAGTCCGTGGA (antisense eG*eT*eT*e[5mC]*e[5mC]*dG*dG*dA*dT*d[5mC]*dA*dG*dT*d[5mC]*d[5mC]*eG*eT*eG*eG*eA) [ISIS 447132] | 58%
GTTTTTCACTTTCCACAACG (antisense eG*eT*eT*eT*eT*dT*d[5mC]*dA*d[5mC]*dT*dT*dT*d[5mC]*d[5mC]*dA*e[5mC]*eA*eA*e[5mC]*eG) [ISIS 447128] | 56%
TACAGACCATGAGCTTTGAT (antisense eT*eA*e[5mC]*eA*eG*dA*d[5mC]*d[5mC]*dA*dT*dG*dA*dG*d[5mC]*dT*eT*eT*eG*eA*eT) [ISIS 447145] | 61%
TAGTAATACGCCTGCATCCA (antisense eT*eA*eG*eT*eA*dA*dT*dA*d[5mC]*dG*d[5mC]*d[5mC]*dT*dG*d[5mC]*eA*eT*e[5mC]*e[5mC]*eA) [ISIS 447121] | 53%
TCATATTTTCATCCTGCACA (antisense eT*e[5mC]*eA*eT*eA*dT*dT*dT*dT*d[5mC]*dA*dT*d[5mC]*d[5mC]*dT*eG*e[5mC]*eA*e[5mC]*eA) [ISIS 447109] | 41%
TCCAAGGCATCTTCAAAGAT (antisense eT*e[5mC]*e[5mC]*eA*eA*dG*dG*d[5mC]*dA*dT*d[5mC]*dT*dT*d[5mC]*dA*eA*eA*eG*eA*eT) [ISIS 447101] | 36%
TCCACCTTGGCTGATGAACC (antisense eT*e[5mC]*e[5mC]*eA*e[5mC]*d[5mC]*dT*dT*dG*dG*d[5mC]*dT*dG*dA*dT*eG*eA*eA*e[5mC]*e[5mC]) [ISIS 447104] | 48%
TCCACTCGGCTGCCCACGAG (antisense eT*e[5mC]*e[5mC]*eA*e[5mC]*dT*d[5mC]*dG*dG*d[5mC]*dT*dG*d[5mC]*d[5mC]*d[5mC]*eA*e[5mC]*eG*eA*eG) [ISIS 447100] | 62%
TCCAGAGATGAAGAGCTGCT (antisense eT*e[5mC]*e[5mC]*eA*eG*dA*dG*dA*dT*dG*dA*dA*dG*dA*dG*e[5mC]*eT*eG*e[5mC]*eT) [ISIS 447131] | 60%
TCTGGAAGCATGCTCAAAAT (antisense eT*e[5mC]*eT*eG*eG*dA*dA*dG*d[5mC]*dA*dT*dG*d[5mC]*dT*d[5mC]*eA*eA*eA*eA*eT) [ISIS 447124] | 60%
TCTTCACTCAGTTGTTCCAG (antisense eT*e[5mC]*eT*eT*e[5mC]*dA*d[5mC]*dT*d[5mC]*dA*dG*dT*dT*dG*dT*eT*e[5mC]*e[5mC]*eA*eG) [ISIS 447108] | 49%
TGTTTCCAGAAAATCCAATA (antisense eT*eG*eT*eT*eT*d[5mC]*d[5mC]*dA*dG*dA*dA*dA*dA*dT*d[5mC]*e[5mC]*eA*eA*eT*eA) [ISIS 447115] | 56%
TTATACAAAAATGCCAACTC (antisense eT*eT*eA*eT*eA*d[5mC]*dA*dA*dA*dA*dA*dT*dG*d[5mC]*d[5mC]*eA*eA*e[5mC]*eT*e[5mC]) [ISIS 447129] | 34%
TTCTTACAAACATCCTAAGA (antisense eT*eT*e[5mC]*eT*eT*dA*d[5mC]*dA*dA*dA*d[5mC]*dA*dT*d[5mC]*d[5mC]*eT*eA*eA*eG*eA) [ISIS 447148] | 54%
TTTGGCAGGTTTGTAAAGCG (antisense eT*eT*eT*eG*eG*d[5mC]*dA*dG*dG*dT*dT*dT*dG*dT*dA*eA*eA*eG*e[5mC]*eG) [ISIS 447107] | 61%

same assay, conditions: 100 nM, cytofectin, ~24 h, vs untreated control; gapmers targeted to SEQ ID NO: 10-14

Sequence | % inhibition of murine TTC39B mRNA
GCCAGCCAGGGCAGGCACTC (antisense eG*e[5mC]*e[5mC]*eA*eG*d[5mC]*d[5mC]*dA*dG*dG*dG*d[5mC]*dA*dG*dG*e[5mC]*eA*e[5mC]*eT*e[5mC]) [ISIS 447163] | 50%
GCCCATGCACGGGTGGAGGA (antisense eG*e[5mC]*e[5mC]*e[5mC]*eA*dT*dG*d[5mC]*dA*d[5mC]*dG*dG*dG*dT*dG*eG*eA*eG*eG*eA) [ISIS 447156] | 16%
GCTTACCTTGGACCATTTAC (eG*e[5mC]*eT*eT*eA*d[5mC]*d[5mC]*dT*dT*dG*dG*dA*d[5mC]*d[5mC]*dA*eT*eT*eT*eA*e[5mC]; antisense) [ISIS 447173] | 59%
GGAGATGTGTGTACGGCAGC (antisense eG*eG*eA*eG*eA*dT*dG*dT*dG*dT*dG*dT*dA*d[5mC]*dG*eG*e[5mC]*eA*eG*e[5mC]) [ISIS 447161] | 14%
GGTGCCCGGACCAGCCCGCT (antisense eG*eG*eT*eG*e[5mC]*d[5mC]*d[5mC]*dG*dG*dA*d[5mC]*d[5mC]*dA*dG*d[5mC]*e[5mC]*e[5mC]*eG*e[5mC]*eT) [ISIS 447158] | 39%
GTTTCTTGAGCCTATAAGTC (eG*eT*eT*eT*e[5mC]*dT*dT*dG*dA*dG*d[5mC]*d[5mC]*dT*dA*dT*eA*eA*eG*eT*e[5mC]; antisense) [ISIS 447172] | 54%
TATGGAGAAGCAGATGGCCT (eT*eA*eT*eG*eG*dA*dG*dA*dA*dG*d[5mC]*dA*dG*dA*dT*eG*eG*e[5mC]*e[5mC]*eT; antisense) [ISIS 447175] | 56%
TCCAGATCATTATGTTTACA (eT*e[5mC]*e[5mC]*eA*eG*dA*dT*d[5mC]*dA*dT*dT*dA*dT*dG*dT*eT*eT*eA*e[5mC]*eA; antisense) [ISIS 447174] | 50%
TCCGGTGCGCACCCAGTACC (antisense eT*e[5mC]*e[5mC]*eG*eG*dT*dG*d[5mC]*dG*d[5mC]*dA*d[5mC]*d[5mC]*d[5mC]*dA*eG*eT*eA*e[5mC]*e[5mC]) [ISIS 447155] | 23%
TGTCCGATGGAGATTGTTAA (antisense eT*eG*eT*e[5mC]*e[5mC]*dG*dA*dT*dG*dG*dA*dG*dA*dT*dT*eG*eT*eT*eA*eA) [ISIS 447164] | 0%
TTCCAGCTCGGCTGCGCCAC (antisense eT*eT*e[5mC]*e[5mC]*eA*dG*d[5mC]*dT*d[5mC]*dG*dG*d[5mC]*dT*dG*d[5mC]*eG*e[5mC]*e[5mC]*eA*e[5mC]) [ISIS 447157] | 21%

system: murine TTC39B mRNA; assay: Dose-dependent antisense inhibition of murine TTC39B in mouse primary hepatocytes (Example 2); type: cell-based; conditions: 25 nM, cytofectin, ~16 h
Method: Cells were plated at a density of 10,000 cells per well and transfected using cytofectin reagent with 25 nM, 50 nM, 100 nM, and 200 nM concentrations of antisense oligonucleotide, as specified in Table 3. After a treatment period of approximately 16 hours, RNA was isolated from the cells and TTC39B mRNA levels were measured by quantitative real-time PCR. Murine primer probe set mTtc39b_LTS00287 (forward sequence: […], incorporated herein as SEQ ID NO: 94; reverse sequence: […], incorporated herein as SEQ ID NO: 95; probe sequence: […], incorporated herein as SEQ ID NO: 96) was used to measure mRNA levels. TTC39B mRNA levels were adjusted according to total RNA content, as measured by RIBOGREEN®. Results are presented as percent inhibition of TTC39B, relative to untreated control cells.

Sequence | percent inhibition of TTC39B mRNA
AATGCCACCACCTTCAACCA (antisense eA*eA*eT*eG*e[5mC]*d[5mC]*dA*d[5mC]*d[5mC]*dA*d[5mC]*d[5mC]*dT*dT*d[5mC]*eA*eA*e[5mC]*e[5mC]*eA) [ISIS 447138] | 20%

same assay, conditions: 50 nM, cytofectin, ~16 h

Sequence | percent inhibition of TTC39B mRNA
AATGCCACCACCTTCAACCA (antisense eA*eA*eT*eG*e[5mC]*d[5mC]*dA*d[5mC]*d[5mC]*dA*d[5mC]*d[5mC]*dT*dT*d[5mC]*eA*eA*e[5mC]*e[5mC]*eA) [ISIS 447138] | 49%

same assay, conditions: 100 nM, cytofectin, ~16 h

Sequence | percent inhibition of TTC39B mRNA
AATGCCACCACCTTCAACCA (antisense eA*eA*eT*eG*e[5mC]*d[5mC]*dA*d[5mC]*d[5mC]*dA*d[5mC]*d[5mC]*dT*dT*d[5mC]*eA*eA*e[5mC]*e[5mC]*eA) [ISIS 447138] | 68%

same assay, conditions: 200 nM, cytofectin, ~16 h

Sequence | percent inhibition of TTC39B mRNA
AATGCCACCACCTTCAACCA (antisense eA*eA*eT*eG*e[5mC]*d[5mC]*dA*d[5mC]*d[5mC]*dA*d[5mC]*d[5mC]*dT*dT*d[5mC]*eA*eA*e[5mC]*e[5mC]*eA) [ISIS 447138] | 86%
